Test results: ChEMBL document CHEMBL1201862, “PubChem BioAssay data set” (2004)
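Protocol summary: plate cells (96-well), add compound at 5 concentrations, incubate 48 h, interpolate endpoints linearly. Abbreviation: GI50, concentration required for 50% inhibition of growth.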 Active and inactive are the calls of the source. Rule as the data show it: active = GI50 up to about 1.1 µM and inactive = higher.

Experiments:
Experiment in all cases: NCI-60 cell line screen, 48 h
OVCAR-3 = test system: OVCAR-3
MDA-MB-435 = test system: MDA-MB-435
OVCAR-4 = test system: OVCAR-4
PC-3 = test system: PC-3
NCI-H226 = test system: NCI-H226
M19-MEL = test system: M19-MEL
LXFL 529 = test system: LXFL 529
RXF 631 = test system: RXF 631
CAKI-1 = test system: CAKI-1
DLD-1 = test system: DLD-1
LOX IMVI = test system: LOX IMVI
MDA-MB-231 = test system: MDA-MB-231
HCC 2998 = test system: HCC 2998
KM-20L2 = test system: KM-20L2
NCI/ADR-RES = test system: NCI/ADR-RES
Hs-578T = test system: Hs-578T
HOP-18 = test system: HOP-18
MDA-N = test system: MDA-N
BT-549 = test system: BT-549
SNB-78 = test system: SNB-78
DMS-114 = test system: DMS-114
EKVX = test system: EKVX
MCF7 = test system: MCF7
DMS-273 = test system: DMS-273
DU-145 = test system: DU-145
UACC-62 = test system: UACC-62
MOLT-4 = test system: MOLT-4
RXF 393 = test system: RXF 393
RPMI-8226 = test system: RPMI-8226
K562 = test system: K562
U-251 = test system: U-251
SNB-75 = test system: SNB-75
SNB-19 = test system: SNB-19
Malme-3M = test system: Malme-3M
HT-29 = test system: HT-29
SW-620 = test system: SW-620
COLO 205 = test system: COLO 205
ACHN = test system: ACHN
NCI-H460 = test system: NCI-H460
SK-MEL-5 = test system: SK-MEL-5
CCRF-CEM = test system: CCRF-CEM
UO-31 = test system: UO-31
NCI-H23 = test system: NCI-H23
M14 = test system: M14
786-0 = test system: 786-0
OVCAR-8 = test system: OVCAR-8
TK-10 = test system: TK-10
A498 = test system: A498
HOP-62 = test system: HOP-62
OVCAR-5 = test system: OVCAR-5
SK-OV-3 = test system: SK-OV-3
SF-295 = test system: SF-295
HCT-116 = test system: HCT-116
SF-539 = test system: SF-539
NCI-H522 = test system: NCI-H522
XF498 = test system: XF498
SN12C = test system: SN12C
A549 = test system: A549
UACC-257 = test system: UACC-257
KM12 = test system: KM12
SF-268 = test system: SF-268
IGROV-1 = test system: IGROV-1
HCT-15 = test system: HCT-15
HL-60 = test system: HL-60
SK-MEL-2 = test system: SK-MEL-2
HOP-92 = test system: HOP-92
SK-MEL-28 = test system: SK-MEL-28

O=C1/C(=C/c2ccc(Cl)c(Cl)c2)CN(C(=O)CCN2CCOCC2)C/C1=C\c1ccc(Cl)c(Cl)c1
GI50 (OVCAR-3): 0.00454 µM (active)
GI50 (MDA-MB-435): 0.0121 µM (active)
GI50 (OVCAR-4): 0.00395 µM (active)
GI50 (PC-3): 0.00331 µM (active)
GI50 (NCI-H226): 2.04 µM (inactive)
GI50 (M19-MEL): 1.64 µM (inactive)
GI50 (LXFL 529): 1.56 µM (inactive)
GI50 (RXF 631): 2.94 µM (inactive)
GI50 (CAKI-1): 1.51 µM (inactive)
GI50 (DLD-1): 0.182 µM (active)
GI50 (LOX IMVI): 0.00217 µM (active)
GI50 (MDA-MB-231): 0.00286 µM (active)
GI50 (HCC 2998): 2.09 µM (inactive)
GI50 (KM-20L2): 1.38 µM (inactive)
GI50 (NCI/ADR-RES): 0.0043 µM (active)
GI50 (Hs-578T): 7.76 µM (inactive)
GI50 (HOP-18): 2.55 µM (inactive)
GI50 (MDA-N): 0.0145 µM (active)
GI50 (BT-549): 0.0169 µM (active)
GI50 (SNB-78): 2.66 µM (inactive)
GI50 (DMS-114): 0.746 µM (active)
GI50 (EKVX): 2.4 µM (inactive)
GI50 (MCF7): 0.0184 µM (active)
GI50 (DMS-273): 1.12 µM (inactive)
GI50 (DU-145): 0.0373 µM (active)
GI50 (UACC-62): 1.71 µM (inactive)
GI50 (MOLT-4): 0.00283 µM (active)

CC(=O)O[C@H]1CCC2[C@@H]3CCC4Nc5[nH]ncc5C[C@]4(C)C3CC[C@@]21C (stereo partly drawn)
GI50 (RXF 393): > 100 µM (inactive)
GI50 (OVCAR-3): 32.4 µM (inactive)
GI50 (RPMI-8226): 31.9 µM (inactive)
GI50 (OVCAR-4): 81.1 µM (inactive)
GI50 (K562): 36.3 µM (inactive)
GI50 (NCI-H226): > 100 µM (inactive)
GI50 (M19-MEL): 32.7 µM (inactive)
GI50 (LXFL 529): 28.5 µM (inactive)
GI50 (U-251): 80.2 µM (inactive)
GI50 (SNB-75): 54 µM (inactive)
GI50 (SNB-19): 26.4 µM (inactive)
GI50 (RXF 631): > 100 µM (inactive)
GI50 (CAKI-1): 45.1 µM (inactive)
GI50 (Malme-3M): 32.7 µM (inactive)
GI50 (LOX IMVI): 0.405 µM (active)
GI50 (HT-29): 45.3 µM (inactive)
GI50 (SW-620): 36.8 µM (inactive)
GI50 (COLO 205): 37.2 µM (inactive)
GI50 (ACHN): > 100 µM (inactive)
GI50 (NCI-H460): > 100 µM (inactive)
GI50 (SK-MEL-5): 24.5 µM (inactive)
GI50 (HCC 2998): 30.2 µM (inactive)
GI50 (CCRF-CEM): 22.4 µM (inactive)
GI50 (KM-20L2): 28.1 µM (inactive)
GI50 (UO-31): > 100 µM (inactive)
GI50 (HOP-18): > 100 µM (inactive)
GI50 (NCI-H23): 61.2 µM (inactive)
GI50 (M14): 21.4 µM (inactive)
GI50 (DMS-114): 35.8 µM (inactive)
GI50 (786-0): > 100 µM (inactive)
GI50 (OVCAR-8): 34.9 µM (inactive)
GI50 (TK-10): 74.6 µM (inactive)
GI50 (A498): > 100 µM (inactive)
GI50 (HOP-62): > 100 µM (inactive)
GI50 (OVCAR-5): > 100 µM (inactive)
GI50 (SK-OV-3): > 100 µM (inactive)
GI50 (SF-295): > 100 µM (inactive)
GI50 (EKVX): 35.1 µM (inactive)
GI50 (HCT-116): 64.9 µM (inactive)
GI50 (SF-539): > 100 µM (inactive)
GI50 (NCI-H522): 21.4 µM (inactive)
GI50 (XF498): 26.2 µM (inactive)
GI50 (SN12C): > 100 µM (inactive)
GI50 (DMS-273): 50.7 µM (inactive)
GI50 (A549): > 100 µM (inactive)
GI50 (UACC-257): 22.4 µM (inactive)
GI50 (KM12): 64.1 µM (inactive)
GI50 (SF-268): > 100 µM (inactive)
GI50 (IGROV-1): > 100 µM (inactive)
GI50 (HCT-15): 44.6 µM
GI50 (UACC-62): 18.9 µM (inactive)
GI50 (MOLT-4): 22.9 µM (inactive)
GI50 (HL-60): 18.2 µM (inactive)
GI50 (SK-MEL-2): > 100 µM (inactive)

O=C(CC1(O)C(=O)Nc2ccc(Br)cc21)c1ccc(Cl)cc1 (stereo not drawn)
GI50 (RXF 393): 52.2 µM (inactive)
GI50 (OVCAR-3): > 100 µM (inactive)
GI50 (RPMI-8226): 42.3 µM (inactive)
GI50 (OVCAR-4): 69.7 µM (inactive)
GI50 (K562): 58.7 µM (inactive)
GI50 (NCI-H226): > 100 µM (inactive)
GI50 (LXFL 529): > 100 µM (inactive)
GI50 (U-251): 27.6 µM (inactive)
GI50 (SNB-75): 16.3 µM (inactive)
GI50 (SNB-19): 84.9 µM (inactive)
GI50 (RXF 631): 31.5 µM (inactive)
GI50 (Malme-3M): > 100 µM (inactive)
GI50 (HOP-92): 35.2 µM (inactive)
GI50 (DLD-1): 70.8 µM (inactive)
GI50 (LOX IMVI): 18.2 µM (inactive)
GI50 (HT-29): 42 µM (inactive)
GI50 (SW-620): 43.2 µM (inactive)
GI50 (COLO 205): > 100 µM (inactive)
GI50 (ACHN): > 100 µM (inactive)
GI50 (NCI-H460): > 100 µM (inactive)
GI50 (SK-MEL-5): > 100 µM (inactive)
GI50 (CCRF-CEM): 38.9 µM (inactive)
GI50 (KM-20L2): > 100 µM (inactive)
GI50 (UO-31): > 100 µM (inactive)
GI50 (HOP-18): 72.4 µM (inactive)
GI50 (SK-MEL-28): > 100 µM (inactive)
GI50 (NCI-H23): 67.6 µM (inactive)
GI50 (M14): 83.2 µM (inactive)
GI50 (SNB-78): 83.8 µM (inactive)
GI50 (786-0): 75.7 µM (inactive)
GI50 (OVCAR-8): 52 µM (inactive)
GI50 (TK-10): > 100 µM (inactive)
GI50 (A498): > 100 µM (inactive)
GI50 (HOP-62): 68.9 µM (inactive)
GI50 (OVCAR-5): > 100 µM (inactive)
GI50 (SK-OV-3): > 100 µM (inactive)
GI50 (SF-295): > 100 µM (inactive)
GI50 (EKVX): > 100 µM (inactive)
GI50 (HCT-116): 44.4 µM (inactive)
GI50 (SF-539): 50.7 µM (inactive)
GI50 (NCI-H522): > 100 µM (inactive)
GI50 (SN12C): 77.8 µM (inactive)
GI50 (A549): > 100 µM (inactive)
GI50 (UACC-257): 30.2 µM (inactive)
GI50 (KM12): 47.4 µM (inactive)
GI50 (SF-268): > 100 µM (inactive)
GI50 (IGROV-1): > 100 µM (inactive)
GI50 (HCT-15): > 100 µM
GI50 (UACC-62): 36.2 µM (inactive)
GI50 (MOLT-4): 43.3 µM (inactive)
GI50 (HL-60): > 10 µM (inactive)
GI50 (SK-MEL-2): > 100 µM (inactive)
